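Growth conditions: 96-well plates. Treatment: test compound, 48 hours, 5 concentrations. Analysis: linear interpolation between bracketing concentrations; unreached endpoints set to highest concentration. GI50: concentration for 50% inhibition of growth.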 Activity calls are given as the source filed them. No stated cut-off is given here; in the data, active = GI50 up to about 1.1 µM and inactive = higher.
What was measured:
Assay in all cases: NCI-60 cell line screen, 48 h
SW-620 = test system: SW-620
K562 = test system: K562
SF-539 = test system: SF-539
NCI-H460 = test system: NCI-H460
OVCAR-5 = test system: OVCAR-5
NCI/ADR-RES = test system: NCI/ADR-RES
PC-3 = test system: PC-3
NCI-H522 = test system: NCI-H522
COLO 205 = test system: COLO 205
HCT-116 = test system: HCT-116
NCI-H226 = test system: NCI-H226
TK-10 = test system: TK-10
OVCAR-4 = test system: OVCAR-4
OVCAR-3 = test system: OVCAR-3
SF-295 = test system: SF-295
NCI-H23 = test system: NCI-H23
DU-145 = test system: DU-145
SR = test system: SR
OVCAR-8 = test system: OVCAR-8
BT-549 = test system: BT-549
A549 = test system: A549
MOLT-4 = test system: MOLT-4
SK-MEL-5 = test system: SK-MEL-5
MCF7 = test system: MCF7
HOP-92 = test system: HOP-92
Hs-578T = test system: Hs-578T
RPMI-8226 = test system: RPMI-8226
SF-268 = test system: SF-268
MDA-MB-435 = test system: MDA-MB-435
SNB-75 = test system: SNB-75
HT-29 = test system: HT-29
SK-OV-3 = test system: SK-OV-3
786-0 = test system: 786-0
SN12C = test system: SN12C
HOP-62 = test system: HOP-62
U-251 = test system: U-251
M14 = test system: M14
UACC-257 = test system: UACC-257
UO-31 = test system: UO-31
A498 = test system: A498
CCRF-CEM = test system: CCRF-CEM
Malme-3M = test system: Malme-3M
EKVX = test system: EKVX
SK-MEL-2 = test system: SK-MEL-2
LOX IMVI = test system: LOX IMVI
ACHN = test system: ACHN
SK-MEL-28 = test system: SK-MEL-28
RXF 393 = test system: RXF 393
SNB-19 = test system: SNB-19
MDA-N = test system: MDA-N
MDA-MB-231 = test system: MDA-MB-231
KM12 = test system: KM12
HCT-15 = test system: HCT-15
IGROV-1 = test system: IGROV-1
CAKI-1 = test system: CAKI-1
T47D = test system: T47D
UACC-62 = test system: UACC-62
HCC 2998 = test system: HCC 2998
HL-60 = test system: HL-60

Structure (SMILES): CC(C)(C)OC(=O)N1C/C=C\C(=O)C2(OCCO2)c2ccccc21
- GI50 (SW-620): 25.1 µM (inactive)
- GI50 (K562): 22 µM (inactive)
- GI50 (SF-539): 22.1 µM (inactive)
- GI50 (NCI-H460): 22.7 µM (inactive)
- GI50 (OVCAR-5): > 100 µM (inactive)
- GI50 (NCI/ADR-RES): 47.5 µM (inactive)
- GI50 (PC-3): 29.4 µM (inactive)
- GI50 (NCI-H522): 24 µM (inactive)
- GI50 (COLO 205): 17.7 µM (inactive)
- GI50 (HCT-116): 17.4 µM (inactive)
- GI50 (NCI-H226): 19.1 µM (inactive)
- GI50 (TK-10): 24.3 µM (inactive)
- GI50 (OVCAR-4): 28.4 µM (inactive)
- GI50 (OVCAR-3): 15.7 µM (inactive)
- GI50 (SF-295): 26.4 µM (inactive)
- GI50 (NCI-H23): 36.1 µM (inactive)
- GI50 (DU-145): 28.6 µM (inactive)
- GI50 (SR): 25.8 µM (inactive)
- GI50 (OVCAR-8): 24.9 µM (inactive)
- GI50 (BT-549): 22.5 µM (inactive)
- GI50 (A549): 35.2 µM (inactive)
- GI50 (MOLT-4): 19.5 µM (inactive)
- GI50 (SK-MEL-5): 16.5 µM (inactive)
- GI50 (MCF7): 31.4 µM (inactive)
- GI50 (HOP-92): 15.9 µM (inactive)
- GI50 (Hs-578T): 45 µM (inactive)
- GI50 (RPMI-8226): 20.4 µM (inactive)
- GI50 (SF-268): 34 µM (inactive)
- GI50 (MDA-MB-435): 17.7 µM (inactive)
- GI50 (SNB-75): 28.2 µM (inactive)
- GI50 (HT-29): 19.2 µM (inactive)
- GI50 (SK-OV-3): 37.3 µM (inactive)
- GI50 (786-0): 23.9 µM (inactive)
- GI50 (SN12C): 26.5 µM (inactive)
- GI50 (HOP-62): 48.9 µM (inactive)
- GI50 (U-251): 29.9 µM (inactive)
- GI50 (M14): 20.7 µM (inactive)
- GI50 (UACC-257): 20.8 µM (inactive)
- GI50 (UO-31): 17.7 µM (inactive)
- GI50 (A498): > 100 µM (inactive)
- GI50 (CCRF-CEM): 25.4 µM (inactive)
- GI50 (Malme-3M): 22.7 µM (inactive)
- GI50 (EKVX): 31.3 µM (inactive)
- GI50 (SK-MEL-2): 24.5 µM (inactive)
- GI50 (LOX IMVI): 16.7 µM (inactive)
- GI50 (ACHN): 34.2 µM (inactive)
- GI50 (SK-MEL-28): 22.5 µM (inactive)
- GI50 (RXF 393): 21.2 µM (inactive)
- GI50 (SNB-19): 35.5 µM (inactive)
- GI50 (MDA-N): 20.4 µM (inactive)
- GI50 (MDA-MB-231): 19.6 µM (inactive)
- GI50 (KM12): 31.6 µM (inactive)
- GI50 (HCT-15): 31.7 µM
- GI50 (IGROV-1): 16.9 µM (inactive)
- GI50 (CAKI-1): 33.7 µM (inactive)
- GI50 (T47D): 21.3 µM (inactive)

Structure (SMILES): CN(C)CCCNc1ccc2nnn3c4ccc(OC(=O)c5ccc([N+](=O)[O-])cc5)cc4c(=O)c1c23
- GI50 (SW-620): 2.32 µM (inactive)
- GI50 (K562): 2.86 µM (inactive)
- GI50 (SF-539): 2.9 µM (inactive)
- GI50 (NCI-H460): 0.467 µM (active)
- GI50 (OVCAR-5): 11.5 µM (inactive)
- GI50 (NCI/ADR-RES): 8.2 µM (inactive)
- GI50 (PC-3): 2.74 µM (inactive)
- GI50 (NCI-H522): 1.32 µM (inactive)
- GI50 (COLO 205): 5.22 µM (inactive)
- GI50 (UACC-62): 15.9 µM (inactive)
- GI50 (HCT-116): 1.51 µM (inactive)
- GI50 (TK-10): 5.82 µM (inactive)
- GI50 (OVCAR-4): 2.47 µM (inactive)
- GI50 (OVCAR-3): 10.9 µM (inactive)
- GI50 (HCC 2998): 5.64 µM (inactive)
- GI50 (SF-295): 5.6 µM (inactive)
- GI50 (NCI-H23): 6.73 µM (inactive)
- GI50 (DU-145): 2.61 µM (inactive)
- GI50 (SR): 0.574 µM (active)
- GI50 (OVCAR-8): 2.26 µM (inactive)
- GI50 (BT-549): 16.4 µM (inactive)
- GI50 (A549): 1.28 µM (inactive)
- GI50 (MOLT-4): 0.408 µM (active)
- GI50 (MCF7): 2.27 µM (inactive)
- GI50 (HOP-92): 10.6 µM (inactive)
- GI50 (Hs-578T): 9.77 µM (inactive)
- GI50 (RPMI-8226): 2.44 µM (inactive)
- GI50 (SF-268): 4.09 µM (inactive)
- GI50 (MDA-MB-435): 5.7 µM (inactive)
- GI50 (HT-29): 2.55 µM (inactive)
- GI50 (SK-OV-3): 6.98 µM (inactive)
- GI50 (786-0): 1.52 µM (inactive)
- GI50 (SN12C): 3.05 µM (inactive)
- GI50 (HOP-62): 3.54 µM (inactive)
- GI50 (U-251): 4.58 µM (inactive)
- GI50 (M14): 13 µM (inactive)
- GI50 (UACC-257): 11.7 µM (inactive)
- GI50 (UO-31): 4.67 µM (inactive)
- GI50 (A498): 16.6 µM (inactive)
- GI50 (CCRF-CEM): 0.849 µM (active)
- GI50 (Malme-3M): 4.92 µM (inactive)
- GI50 (EKVX): 8.85 µM (inactive)
- GI50 (SK-MEL-2): 18.8 µM (inactive)
- GI50 (LOX IMVI): 1.8 µM (inactive)
- GI50 (ACHN): 1.5 µM (inactive)
- GI50 (SK-MEL-28): 13.7 µM (inactive)
- GI50 (RXF 393): 1.33 µM (inactive)
- GI50 (SNB-19): 2.95 µM (inactive)
- GI50 (MDA-N): 11 µM (inactive)
- GI50 (MDA-MB-231): 9.04 µM (inactive)
- GI50 (KM12): 5.64 µM (inactive)
- GI50 (HCT-15): 2.72 µM
- GI50 (IGROV-1): 1.07 µM (active)
- GI50 (CAKI-1): 0.649 µM (active)
- GI50 (T47D): 24.2 µM (inactive)

Structure (SMILES): CC1=NC2(CCCCC2)N(Cl)C(=O)C1SC#N (stereo unspecified)
- GI50 (SW-620): 12.8 µM (inactive)
- GI50 (HL-60): > 100 µM (inactive)
- GI50 (K562): 9.46 µM (inactive)
- GI50 (SF-539): 19.5 µM (inactive)
- GI50 (NCI-H460): > 10 µM (inactive)
- GI50 (OVCAR-5): 22.8 µM (inactive)
- GI50 (NCI/ADR-RES): 20.3 µM (inactive)
- GI50 (PC-3): 15.8 µM (inactive)
- GI50 (NCI-H522): 16.7 µM (inactive)
- GI50 (COLO 205): 63.1 µM (inactive)
- GI50 (UACC-62): 13.4 µM (inactive)
- GI50 (NCI-H226): 24 µM (inactive)
- GI50 (TK-10): 20.3 µM (inactive)
- GI50 (OVCAR-4): 20.8 µM (inactive)
- GI50 (OVCAR-3): 19.6 µM (inactive)
- GI50 (HCC 2998): 20.7 µM (inactive)
- GI50 (SF-295): 18.7 µM (inactive)
- GI50 (NCI-H23): 25.1 µM (inactive)
- GI50 (DU-145): 25.2 µM (inactive)
- GI50 (SR): > 100 µM (inactive)
- GI50 (OVCAR-8): 17.9 µM (inactive)
- GI50 (BT-549): 14.4 µM (inactive)
- GI50 (A549): 0.0504 µM (active)
- GI50 (MOLT-4): 4.97 µM (inactive)
- GI50 (SK-MEL-5): 18.2 µM (inactive)
- GI50 (MCF7): 23.6 µM (inactive)
- GI50 (Hs-578T): 41 µM (inactive)
- GI50 (RPMI-8226): > 10 µM (inactive)
- GI50 (SF-268): 18 µM (inactive)
- GI50 (MDA-MB-435): 19.2 µM (inactive)
- GI50 (SNB-75): 20.7 µM (inactive)
- GI50 (HT-29): 20.7 µM (inactive)
- GI50 (SK-OV-3): > 10 µM (inactive)
- GI50 (786-0): 17.5 µM (inactive)
- GI50 (SN12C): 19.4 µM (inactive)
- GI50 (HOP-62): 22.9 µM (inactive)
- GI50 (U-251): 19.4 µM (inactive)
- GI50 (M14): 16.2 µM (inactive)
- GI50 (UO-31): 18.8 µM (inactive)
- GI50 (A498): > 100 µM (inactive)
- GI50 (CCRF-CEM): 2.58 µM (inactive)
- GI50 (Malme-3M): 18.2 µM (inactive)
- GI50 (EKVX): 17.5 µM (inactive)
- GI50 (SK-MEL-2): 20 µM (inactive)
- GI50 (LOX IMVI): 10.7 µM (inactive)
- GI50 (ACHN): 17.7 µM (inactive)
- GI50 (SK-MEL-28): 18 µM (inactive)
- GI50 (RXF 393): 18.3 µM (inactive)
- GI50 (SNB-19): 23.4 µM (inactive)
- GI50 (MDA-N): 15.8 µM (inactive)
- GI50 (MDA-MB-231): 17.6 µM (inactive)
- GI50 (KM12): 21.4 µM (inactive)
- GI50 (HCT-15): 23.8 µM
- GI50 (IGROV-1): 18.2 µM (inactive)
- GI50 (T47D): 21.6 µM (inactive)
